The text below walks through data of patent US20180055797A1, “NON-RACEMIC KETONE SALTS FOR RAPID-ONSET NUTRITIONAL KETOSIS AND METABOLIC THERAPY” (KetoneAid Inc., priority 2016, published 2018).

Assay [1] is described as follows: Ketone blood concentration after ingestion of 1,3-butanediol (FIG. 2, FIG. 3). Type of assay: in vivo, person. To be noted: for increase in ketones over pre consumption ketone levels: one person (D), two people racemic. An excerpt: FIG. 2 depicts an exemplary ketone blood concentration after ingestion of racemic 1,3-butanediol.
FIG. 3 depicts a ketone blood concentration after one person ingested (D) 1,3-butanediol, compared to the results of two people ingesting racemic 1,3-butanediol.
It should also be noted that only the D enantiomer is active in the body as a source of extracellular fuel that is then transported into the cells. Ketone blood level meters currently on the market only measure the blood level of the D enantiomer. Products containing racemic salts require two to three times the amount of sodium, calcium and potassium for an equal amount of D-β-hydroxybutyrate readings in the blood. A reason the potential levels of D-β-hydroxybutyrate in the blood is over double with chiral solutions is because the body has to waste energy and uses up some of the D-β-hydroxybutyrate to burn off the unnatural L-O-hydroxybutyrate.
FIG. 2 depicts exemplary results from ingestion of 33 ml racemic 1,3-butanediol. […] For example, as shown, the chiral form provided an increase in ketones of approximately 3.2 mmol/L whereas the racemic form provided approximately 0.9-1.0 mmol/L increases over pre consumption ketone levels.

The conditions of assay [2]: cited from earlier work.

With `CC(O)CCO` (racemic) [racemic 1,3-butanediol, 1,3-butanediol], in assay [1] (ingestion of 33 ml, FIG. 3), the “increase in ketones over pre consumption ketone levels” value was in the range of 0.9 to 1.0 mmol/L. Further, the “ketone blood concentration achieved” value in assay [1] (ingestion of 33 ml, over a 105-minute period, FIG. 2) is on record as no more than 1 mmol/L.
As for `CC(O)CC(=O)[O-].[K+]` (racemic) [racemic potassium β-hydroxybutyrate, potassium β-hydroxybutyrate], in assay [2] (consuming at about 100% of potassium's RDA), the “ketones level a person would be limited to reaching” value is “approximately 0.5 mmol/L”.
Take `CC(O)CC(=O)[O-].[Na+]` (racemic) [racemic sodium β-hydroxybutyrate, sodium β-hydroxybutyrate]: the “ketones level a person would be limited to” value in assay [2] (consuming at about 100-200% of the RDA for sodium) was “approximately 0.5 mmol/L”.
Turning to `CC(O)CCO` (stereo not drawn) [(D)-1,3-butanediol], in assay [1] (33 ml of each, FIG. 3), the “D-β-hydroxybutyrate in the blood, (D) relative to racemic 1,3-butanediol” value is on record as “over double”. In addition, the “increase in ketones over pre consumption ketone levels” value in assay [1] (ingestion of 33 ml, FIG. 3) is given as “approximately 3.2 mmol/L”.
